“Also recorded” adds a separate entry of the source.
T1: Star-PAP complex (Homo sapiens, UniProt Q9H6E5, D66G)
T1 construct: made in house; host or cells: HEK-293 cells stably expressing FLAG-Star-PAP, treated with tBHQ before purification
T1 sequence (Q9H6E5 1-874 D66G): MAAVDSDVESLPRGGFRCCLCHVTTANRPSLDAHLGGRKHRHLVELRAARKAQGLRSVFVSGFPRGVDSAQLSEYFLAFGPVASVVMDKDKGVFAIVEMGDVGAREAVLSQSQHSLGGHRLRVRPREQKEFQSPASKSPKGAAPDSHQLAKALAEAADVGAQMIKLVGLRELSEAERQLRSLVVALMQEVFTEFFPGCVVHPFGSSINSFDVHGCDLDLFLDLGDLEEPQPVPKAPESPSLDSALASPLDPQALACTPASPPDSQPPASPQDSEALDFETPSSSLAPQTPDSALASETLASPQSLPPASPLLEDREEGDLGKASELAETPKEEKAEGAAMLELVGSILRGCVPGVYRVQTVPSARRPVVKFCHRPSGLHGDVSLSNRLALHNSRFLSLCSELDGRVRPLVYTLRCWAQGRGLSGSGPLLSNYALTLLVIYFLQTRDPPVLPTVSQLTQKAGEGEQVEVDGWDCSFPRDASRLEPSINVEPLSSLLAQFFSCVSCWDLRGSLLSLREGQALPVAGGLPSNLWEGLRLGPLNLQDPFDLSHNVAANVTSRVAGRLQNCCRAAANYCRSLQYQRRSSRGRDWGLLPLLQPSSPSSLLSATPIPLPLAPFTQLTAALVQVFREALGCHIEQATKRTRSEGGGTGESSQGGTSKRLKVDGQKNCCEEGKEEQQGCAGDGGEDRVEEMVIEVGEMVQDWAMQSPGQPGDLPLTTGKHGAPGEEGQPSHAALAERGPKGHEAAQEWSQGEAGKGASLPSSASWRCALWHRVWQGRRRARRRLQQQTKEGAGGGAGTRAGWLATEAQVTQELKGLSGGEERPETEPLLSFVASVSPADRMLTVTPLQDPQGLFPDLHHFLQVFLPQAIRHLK

T2: CKIα (Rattus norvegicus, UniProt P97633)
T2 construct: made in house; host or cells: HEK 293 cells
T2 sequence (P97633 1-325): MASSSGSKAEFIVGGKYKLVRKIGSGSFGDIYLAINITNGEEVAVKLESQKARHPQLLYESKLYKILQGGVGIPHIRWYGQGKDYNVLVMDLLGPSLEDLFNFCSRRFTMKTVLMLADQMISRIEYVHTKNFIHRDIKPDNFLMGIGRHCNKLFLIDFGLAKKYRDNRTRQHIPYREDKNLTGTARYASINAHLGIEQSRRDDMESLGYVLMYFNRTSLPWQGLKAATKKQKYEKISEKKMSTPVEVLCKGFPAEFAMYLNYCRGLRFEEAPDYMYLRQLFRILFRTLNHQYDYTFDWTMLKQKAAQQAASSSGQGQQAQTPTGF

T3: Star-PAP (Homo sapiens, UniProt Q9H6E5, D66G)
T3 construct: full length His-Star-PAP was purified over a Ni^++ or glutathione columns; His; T7 tag; made in house; host or cells: E. coli BL21(DE3)
T3 sequence (Q9H6E5 1-874 D66G): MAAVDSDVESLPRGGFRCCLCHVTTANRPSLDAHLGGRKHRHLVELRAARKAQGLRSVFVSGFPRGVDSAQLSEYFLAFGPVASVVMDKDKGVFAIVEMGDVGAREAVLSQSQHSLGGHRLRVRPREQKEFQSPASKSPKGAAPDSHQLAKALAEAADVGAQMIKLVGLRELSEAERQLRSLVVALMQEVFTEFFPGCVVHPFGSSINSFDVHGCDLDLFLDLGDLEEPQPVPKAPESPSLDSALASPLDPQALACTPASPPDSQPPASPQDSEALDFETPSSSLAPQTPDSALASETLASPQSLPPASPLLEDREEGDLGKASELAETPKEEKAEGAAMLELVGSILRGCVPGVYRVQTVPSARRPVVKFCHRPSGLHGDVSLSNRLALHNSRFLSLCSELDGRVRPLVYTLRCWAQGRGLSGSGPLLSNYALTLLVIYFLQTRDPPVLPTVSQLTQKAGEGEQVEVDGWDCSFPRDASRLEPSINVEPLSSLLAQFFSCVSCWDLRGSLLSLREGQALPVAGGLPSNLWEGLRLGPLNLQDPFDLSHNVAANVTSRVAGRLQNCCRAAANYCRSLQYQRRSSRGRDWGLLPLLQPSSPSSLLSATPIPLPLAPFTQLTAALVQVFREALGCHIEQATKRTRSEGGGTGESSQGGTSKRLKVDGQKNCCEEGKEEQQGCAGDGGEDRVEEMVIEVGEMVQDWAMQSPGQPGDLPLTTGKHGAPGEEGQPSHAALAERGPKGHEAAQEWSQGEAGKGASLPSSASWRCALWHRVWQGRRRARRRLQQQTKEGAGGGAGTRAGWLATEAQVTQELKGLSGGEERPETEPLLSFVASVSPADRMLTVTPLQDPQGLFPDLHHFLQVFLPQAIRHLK

B1: Star-PAP: novel PIP-regulated poly(A) polymerase, SEQ ID NO: 2 (protein, listed as Homo sapiens)
chain: MAAVDSDVESLPRGGFRCCLCHVTTANRPSLDAHLGGRKHRHLVELRAARKAQGLRSVFVSGFPRGVDSAQLSEYFLAFGPVASVVMDKDKGVFAIVEMGDVGAREAVLSQSQHSLGGHRLRVRPREQKEFQSPASKSPKGAAPDSHQLAKALAEAADVGAQMIKLVGLRELSEAERQLRSLVVALMQEVFTEFFPGCVVHPFGSSINSFDVHGCDLDLFLDLGDLEEPQPVPKAPESPSLDSALASPLDPQALACTPASPPDSQPPASPQDSEALDFETPSSSLAPQTPDSALASETLASPQSLPPASPLLEDREEGDLGKASELAETPKEEKAEGAAMLELVGSILRGCVPGVYRVQTVPSARRPVVKFCHRPSGLHGDVSLSNRLALHNSRFLSLCSELDGRVRPLVYTLRCWAQGRGLSGSGPLLSNYALTLLVIYFLQTRDPPVLPTVSQLTQKAGEGEQVEVDGWDCSFPRDASRLEPSINVEPLSSLLAQFFSCVSCWDLRGSLLSLREGQALPVAGGLPSNLWEGLRLGPLNLQDPFDLSHNVAANVTSRVAGRLQNCCRAAANYCRSLQYQRRSSRGRDWGLLPLLQPSSPSSLLSATPIPLPLAPFTQLTAALVQVFREALGCHIEQATKRTRSEGGGTGESSQGGTSKRLKVDGQKNCCEEGKEEQQGCAGDGGEDRVEEMVIEVGEMVQDWAMQSPGQPGDLPLTTGKHGAPGEEGQPSHAALAERGPKGHEAAQEWSQGEAGKGASLPSSASWRCALWHRVWQGRRRARRRLQQQTKEGAGGGAGTRAGWLATEAQVTQELKGLSGGEERPETEPLLSFVASVSPADRMLTVTPLQDPQGLFPDLHHFLQVFLPQAIRHLK

Legend:
Star-PAP complex = biological target: T1, Star-PAP complex; assay: PAP assay with Star-PAP complex purified from stably expressing HEK-293 cells treated with tBHQ; type: cell-based
Source text: Treatment of cells with tBHQ caused a large increase in Star-PAP complex activity for the initiation of polyadenylation. […] PI4,5P2 produced by PIPKIα in the complex may then control the processivity of Star-PAP, resulting in a lengthened poly(A) tail. In this manner Star-PAP may respond to oxidative stress signals, and potential other signals, to efficiently regulate the 3′ end formation and polyadenylation by the Star-PAP complex.

[1] = tested on: T4, Star-PAP complex-associated kinase activity (CKI); assay: in vitro protein kinase assay of purified FLAG-Star-PAP complex: phosphorylation of Star-PAP by the complex-associated kinase activity; type: biochemical, Human; conditions: for phosphorylation of Star-PAP by the complex-associated kinase activity: inhibitor 0.1-100 μM, 45 minutes on ice before ATP
T4 construct: other: PI4,5P2 micelles, 12.5-100 μM; phosphorylation of Star-PAP by the complex-associated kinase activity; Flag-Star-PAP and FLAG-PAPα were expressed in HEK 293 cells and purified on anti-FLAG M2 resin
Method: Synthetic PI4,5P2 (Echelon Biosciences Inc.) was resuspended in 50 mM Tris-HCL pH 7.9 at 2.5 mM and subjected to bath sonication to form micelles and used at final concentration of 12.5-100 μM.
The kinase assays were performed as described above in section 8 for the Star-PAP complexes. Except for inhibitor studies, all reaction components except ATP were incubated with inhibitors for 45 minutes on ice prior to starting the assay.

CKIα = biological target: T2, CKIα; assay: in vitro phosphorylation of heat inactivated FLAG-Star-PAP by purified FLAG-CKIα; type: biochemical; conditions: 50 μM
Method: Flag-Star-PAP and FLAG-PAPα were expressed in HEK 293 cells and purified on anti-FLAG M2 resin. Purified PAP complexes were subject to an in vitro protein kinase assay as follows. Protein kinase assays were performed in 1× kinase buffer (50 mM Tris-HCl pH 7.5, 10 mM MgCl2 and 0.5 mM EGTA). Assays were initiated by the addition of 10 μM ATP and 5 μCi γ^32P ATP to the reaction mix. Substrates included 100 μg/ml of the generic protein kinase substrates myelin basic protein (MBP) or casein. Heat inactivation of the endogenous kinase activity in the Star-PAP complex was destroyed by heating for 15 minutes at 65° C. The Star-PAP purified complex contained protein kinase activity toward both MBP and casein while the PAPα complex contained almost no detectable protein kinase activity (FIG. 19).
Casein Kinase Iα (CKIα), is a protein kinase found in nuclear speckles; moreover, CKIα activity is inhibited by PI4,5P2. […] FLAG proteins were expressed and purified as follows. Human Star-PAP and rat CKIα cDNAs were cloned in to the pFLAG-1 mammalian expression vector (Sigma). […]
Before the phosphorylation assay, endogenous kinase activity in the FLAG complex was destroyed by heat inactivation; no detectable phosphorylation activity was detected after heat inactivation. […]

Star-PAP = biological target: T3, Star-PAP; assay: in vitro poly(A) polymerase assay with Star-PAP; type: biochemical
Source text: The poly(A) polymerase activity of PIP-PAPs such as Star-PAP, natural or artificial variants, homologues or fragments thereof may be tested by methods known in the art. (See e.g., Kyriakopoulou et al., (2001) J Biol Chem, 276:33504-11).
(§1) As another example, a specific 45 nt RNA oligonucleotide (UAGGGA)5A15 (SEQ ID NO: 22) was designed to serve as an RNA substrate in the poly(A) polymerase assay.
Because Star-PAP associates with the PI4,5P2 generating enzyme PIPKIα; the effect of exogenous phosphoinositides on the in vitro poly(A) polymerase activity of Star-PAP was evaluated. Star-PAP was incubated in the presence of various phosphoinositides (PI, PI3P, PI4P, PI5P, PI3,4P2, PI3,5P2, PI4,5P2 and PI3,4,5P3) or buffer only as a control. Following a brief incubation period the remaining components of the assay were added and allowed to react. In the absence of any phosphoinositide species, Star-PAP was able to extend an RNA primer to generate a modest poly(A) tail. In the presence of PI4,5P2 the incorporation of ATP into poly(A) tails was enhanced. […] This effect was specific for PI4,5P2 as all other inositol phospholipids assayed had no effect on Star-PAP activity in this assay.

PAPα = PAPα (Homo sapiens, UniProt P51003); assay: in vitro poly(A) polymerase assay with PAPα; type: biochemical; conditions: 50 μM inositol phospholipid micelles
Chain of PAPα (P51003 whole entry): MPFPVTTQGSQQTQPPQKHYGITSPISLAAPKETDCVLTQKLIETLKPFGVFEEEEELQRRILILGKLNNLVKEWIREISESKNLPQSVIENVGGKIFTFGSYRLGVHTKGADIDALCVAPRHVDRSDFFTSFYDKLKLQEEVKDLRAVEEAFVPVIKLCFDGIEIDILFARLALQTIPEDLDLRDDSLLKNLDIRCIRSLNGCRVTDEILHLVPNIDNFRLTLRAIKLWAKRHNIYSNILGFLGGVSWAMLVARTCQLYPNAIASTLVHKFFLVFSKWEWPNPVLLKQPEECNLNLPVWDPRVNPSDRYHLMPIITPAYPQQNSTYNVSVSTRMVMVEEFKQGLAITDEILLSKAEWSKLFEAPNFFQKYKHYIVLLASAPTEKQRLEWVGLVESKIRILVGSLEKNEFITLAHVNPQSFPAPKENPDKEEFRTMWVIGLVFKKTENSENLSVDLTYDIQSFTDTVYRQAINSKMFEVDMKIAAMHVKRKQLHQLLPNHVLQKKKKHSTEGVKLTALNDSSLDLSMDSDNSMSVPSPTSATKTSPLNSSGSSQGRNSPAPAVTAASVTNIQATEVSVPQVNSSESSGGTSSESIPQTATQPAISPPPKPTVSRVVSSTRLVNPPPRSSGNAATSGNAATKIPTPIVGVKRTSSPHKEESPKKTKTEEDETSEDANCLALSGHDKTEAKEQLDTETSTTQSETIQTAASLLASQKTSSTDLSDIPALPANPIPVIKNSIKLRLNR

[2] = biological target: Star-PAP complex-associated kinase activity (CKI); conditions: printed beside inhibitor name/vendor and in FIG. 23 legend; inhibitors used at 0.1-100 μM on FLAG-Star-PAP complex; cited from earlier work
HO-1 mRNA = assay: quantitative real-time PCR of HO-1 mRNA in HEK 293 cells; conditions: HEK 293 cells pretreated with CKI inhibitor (IC261 50 μM, CKI-7 250 μM, 2.5 h)
[3] = biological target: yeast canonical poly(A) polymerase (Saccharomyces cerevisiae, UniProt P29468); assay: in vitro poly(A) polymerase assay with yeast canonical poly(A) polymerase control; type: biochemical; conditions: (UAGGGA)5A15 primer
Chain of yeast canonical poly(A) polymerase (P29468 whole entry): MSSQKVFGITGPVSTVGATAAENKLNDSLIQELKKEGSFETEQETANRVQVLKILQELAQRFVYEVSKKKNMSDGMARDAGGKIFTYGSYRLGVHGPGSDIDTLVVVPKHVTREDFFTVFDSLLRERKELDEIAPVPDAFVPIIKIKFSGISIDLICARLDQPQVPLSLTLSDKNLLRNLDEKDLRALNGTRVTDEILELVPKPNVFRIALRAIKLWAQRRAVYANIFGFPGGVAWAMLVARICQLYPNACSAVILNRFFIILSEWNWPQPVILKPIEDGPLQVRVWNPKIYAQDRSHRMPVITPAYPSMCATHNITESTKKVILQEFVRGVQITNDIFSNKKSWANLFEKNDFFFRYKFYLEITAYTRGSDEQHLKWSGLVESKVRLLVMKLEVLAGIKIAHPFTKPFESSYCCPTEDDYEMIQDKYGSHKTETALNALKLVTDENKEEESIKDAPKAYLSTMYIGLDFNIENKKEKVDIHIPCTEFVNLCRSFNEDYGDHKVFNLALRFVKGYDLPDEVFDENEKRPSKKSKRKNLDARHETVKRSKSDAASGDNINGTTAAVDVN
Source text: as §1

Molecule | phosphorylation of Star-PAP by CKIα (CKIα) | phosphorylation of Star-PAP by the complex-associated kinase activity [1] | IC50 [2] | basal levels of HO-1 mRNA (HO-1 mRNA) | other results
CC(C)(C)c1cc(O)ccc1O [tBHQ, tert-butylhydroquinone] |  |  |  |  | increase in enzymatic activity of Star-PAP complex over Star-PAP from control cells (Star-PAP complex; cells treated with 100 μM tBHQ): more than 15 fold
phosphatidylinositol-4,5-bisphosphate [PI4,5P2] | blocked; also recorded: can block CKIα phosphorylation of Star-PAP |  |  |  | concentration at which phosphorylation of FLAG-Star-PAP was inhibited (as low as) ([1]; PI4,5P2 micelles, 12.5-100 μM): 12.5 µM; effect of phosphoinositide on Star-PAP poly(A) polymerase activity (incorporation of ATP into poly(A) tails) (Star-PAP; 50 μM inositol phospholipid micelles): enhanced; effect of phosphoinositide on PAPα activity (PAPα): no phosphoinositides tested, including PI4,5P2 stimulated the activity of PAPα; Star-PAP processivity (length of the poly(A) tails) (Star-PAP complex; Star-PAP isolated from tBHQ-treated cells, time course): stimulated Star-PAP processivity, increasing the length of the poly(A) tails
NCCNS(=O)(=O)c1ccc(Cl)c2ccncc12 [CKI-7] |  | block the phosphorylation of Star-PAP by the complex-associated kinase activity in a dose dependent fashion | ~6 µM | reduce HO-1 | 
cordycepin triphosphate |  |  |  |  | Star-PAP poly(A) polymerase activity with chain terminator (Star-PAP; (UAGGGA)5A15 primer): inhibited in a dose dependent fashion; yeast canonical poly(A) polymerase activity with chain terminator [3]: inhibited in a dose dependent fashion
COc1cc(OC)c(C=C2C(O)=Nc3ccccc32)c(OC)c1 [IC261] | blocked; also recorded: can block CKIα phosphorylation of Star-PAP | block the phosphorylation of Star-PAP by the complex-associated kinase activity in a dose dependent fashion | 11 µM | reduce HO-1 | 
B1 |  |  |  |  | specific poly(A) polymerase activity relative to canonical PAPα (Star-PAP; side-by-side with PAPα): 1.3 fold

Source: patent US8088574B2, “Poly(A) polymerase” (Wisconsin Alumni Research Foundation, priority 2007, dated 2012)
